What was measured:
[1] = system: Kuramochi cells labeled with mApple-H2B; test: IncuCyte cell proliferation assay; assay type: cell-based; conditions: Kuramochi RB-WT, cell count 0 to 72 hours; method calls it GI50
Description: IncuCyte® assay was used to measure the effect of disclosed compounds on cell proliferation. Fluorescent microscopy images of cells were taken immediately after compound treatment and 72 hours later. Image analysis software was used to obtain cell counts as a function of compound concentration. Kuramochi cells labeled with mApple-H2B were seeded on 384-well assay-ready plates. Plates were placed in an IncuCyte® (Sartorius) and scanned at 0 and 72 hours. IncuCyte® software was used to count the number of fluorescent nuclei in each well. The fold change in cell count from 0 to 72 hours in wells treated with increasing compounds concentrations (10 pts, 1/2 log dilution, 20 μM top concentration) was normalized to DMSO control wells. The normalized cell counts were fit with dose response curves and a GI50 was calculated.

[2] = biological target: T1, CDK2/Cyclin E1 (Homo sapiens (Human), UniProt P24941); test: ADP-Glo Luminescent Kinase Assay, ADPGLO (CDK2/E1-37C); assay type: biochemical; conditions: 0.18 nM CDK2/Cyclin E1, 100 μM ATP, 1.5 μM Histone H1, 37° C.; read-out: Pharmaron ADPGLO (CDK2/E1-37C): IC50
Description: Inhibition of CDK2/Cyclin E1 activity by the presence of small molecules was evaluated using ADP-Glo Luminescent Kinase Assay (Promega). Activated CDK2/Cyclin E1 was incubated with its substrate Histone H1 (SignalChem H10-54N) in the kinase reaction buffer (100 μM ATP, 50 mM HEPES pH 7.5, 10 mM MgCl2, 1 mM EDTA, 2 mM DTT, 0.01% Brij35, 0.5 mg/mL BSA). Luminescence was recorded with an Envision plate reader (PerkinElmer).
Dose titrations of inhibitors in 100% DMSO were combined with 0.36 nM CDK2/Cyclin E1 in reaction buffer. The mixtures were incubated for 60 minutes at 37° C. before the addition of ATP and Histone H1 substrate to initiate the kinase reaction. The final conditions were 0.18 nM CDK2/Cyclin E1, 100 μM ATP, and 1.5 μM Histone H1. The reactions were incubated at 37° C. for 90 minutes before being stopped with the addition of ADP-Glo reagent. This mixture was incubated at room temperature for 60 minutes before Kinase Detection Solution is added to generate luminescence. The stopped reactions were analyzed on an Envision plate reader. The conversion ratios were normalized to yield % activity, plotted against compound concentration, and fit to a four-parameter equation to determine the IC50 for each compound.

[3] = biological target: T1, CDK2/Cyclin E1; test: Caliper LabChip EZ Reader mobility shift assay; assay type: biochemical; conditions: 2.5 nM CDK2/Cyclin E1 (14-475), 100 μM ATP, 1.5 μM fluorescent peptide; read-out: Caliper Assay (CDK2/CCNE1): IC50
Description: Inhibition of CDK2/Cyclin E1 activity in the presence of compounds of the present disclosure was evaluated using a Caliper LabChip® EZ Reader mobility shift assay. In the assay, activated CDK2/Cyclin E1 catalyzes the phosphorylation of a fluorescently tagged peptide 5-FAM-QSPKKG-CONH2 (PerkinElmer, FL Peptide 18) which induces a difference in capillary electrophoresis mobility. The peptide substrate and product were measured, and the conversion ratio was used to determine the inhibition (as % activity and IC50 values) of CDK2/Cyclin E1. Reactions contained 50 mM HEPES pH 7.5, 10 mM MgCl2, 1 mM EDTA, 2 mM DTT, 0.01% Brij35, 0.5 mg/mL BSA, 0.1% DMSO, 2.5 nM CDK2/Cyclin E1 (14-475), 100 μM ATP, and 1.5 μM fluorescent peptide substrate.
Dose titrations of inhibitors in 100% DMSO were combined with 3.25 nM CDK2/Cyclin E1 (14-475) and 130 μM of ATP in reaction buffer. The mixtures were incubated for 30 minutes before the addition of fluorescent peptide substrate to initiate the kinase reaction. The final conditions were 2.5 nM CDK2/Cyclin E1 (14-475), 100 μM ATP, and 1.5 μM fluorescent peptide. The reactions were stopped after 100 minutes with the addition of EDTA (6 mM final EDTA concentration). The stopped reactions were analyzed on a Caliper LabChip® EZ Reader II. The conversion ratios were normalized to yield % activity, plotted against compound concentration, and fit to a four-parameter equation to determine the IC50 for each compound.

[4] = system: Kuramochi cells; test: BrdU cell proliferation assay; assay type: cell-based; conditions: 96 h, developed on day 4, read-out: BrdU - KURAMOCHI.1: IC50
Description: A BrdU assay was used as a measure of proliferation based on the DNA replication process of proliferating cells. BrdU, a pyrimidine analog, is added to the cell culture and incorporated into the DNA of proliferating cells. The presence of the BrdU analog was then measured through a colorimetric ELISA. After fixation and permeabilization of cells, peroxidase-conjugated antibody recognizing BrdU is added and allowed to incubate, followed by thorough washing to remove unbound antibody. In order to quantify the amount of bound antibody, peroxidase substrate is added and produces a color that can be measured at 450 nm.
On day −1, Kuramochi cells (Sekisui XenoTech JCRB0098) were seeded at 2,000 cells/well in columns 2-12 of a 96 well plate (Corning, CLS3596) in 150 uL media and allowed to adhere overnight at 37 degree with 5% CO2. In order to assess specificity of the compounds, Kuramochi RB^KO cells were also plated and treated, as RB^KO cells were not expected to show a proliferative response to CCNE/CDK specific inhibitors.
On day 0, the source plate was prepared by adding 10 mM compounds and performing 3-fold serial dilutions for a 4-point dose response of each compound. Using a multichannel pipette, 2 μL of the contents of the source plate were stamped into an intermediate plate with 500 μL of RPMI 1640 Media, GlutaMAX Supplement (Life Technologies. 61870127) in each well of a Nunc 96 DeepWell™ plate, non-treated 96 DeepWell plate, 2 mL/well, sterile, natural. 60/cs (Sigma Z717274) and mixed thoroughly. 50 uL from row A of this intermediate plate were added to rows A-H of one plate of previously seeded Kuramochi cells, and each subsequent row of the intermediate plate was added to a full plate of cells.
On day 4, the plates were developed using the BrdU ELISA Cell Proliferation Assay according to manufacturer's instructions (Roche, 11647229001). Briefly, BrdU was diluted 1:100 in Gibco®. Opti-MEM® and 20 μL/well was added, shaken for 10 minutes at 350 rpm, and then returned to the incubator for 1 hour. Following incubation, the medium was discarded, and the cells were fixed by adding 200 μL of Fix/Denature solution. The anti-BrdU peroxidase antibody was diluted 1:1000 in OptiMEM, added at 100 μL/well, and incubated while shaking (350 rpm) for one hour. Three washes with PBS were performed to remove any unbound antibody, followed by the addition of 100 μL of substrate solution to each well. […] was then added to halt the reaction, and plates were read out using an Envision spectrophotometer (Perkin Elmer) set to read 450 nm absorbance. Background absorbance values from empty wells were subtracted from all samples and then normalized to DMSO treated wells.

| Compound | IC50 [2] [µM] | IC50 [3] [µM] | IC50 [1] [µM] | IC50 [4] [µM] |
| --- | --- | --- | --- | --- |
| C[C@@H](OCC12CCC(CC1)OC2)[C@H](NC(=O)[C@@H]1CN(c2cc(F)cc3nccnc23)CC12CN(C(=O)C1(C(F)(F)F)CC1)C2)C(=O)N1CCC(c2nccs2)CC1 [Compound I-44, (S)-N-((2S,3R)-3-(2-oxabicyclo[2.2.2]octan-4-ylmethoxy)-1-oxo-1-(4-(thiazol-2-yl)piperidin-1-yl)butan-2-yl)-6-(7-fluoroquinoxalin-5-yl)-2-(1-(trifluoromethyl)cyclopropanecarbonyl)-2,6-diazaspiro[3.4]octane-8-carboxamide] | 0.5 to 5 |  | > 20 |  |
| C[C@@H](OCC1CCC(F)(F)CC1)[C@H](NC(=O)[C@@H]1CN(C(=O)c2cncs2)CC12CN(c1ncco1)C2)C(C)(C)O [Compound I-4, (S)-N-((3S,4R)-4-((4,4-difluorocyclohexyl)methoxy)-2-hydroxy-2-methylpentan-3-yl)-2-(oxazol-2-yl)-6-(thiazole-5-carbonyl)-2,6-diazaspiro[3.4]octane-8-carboxamide] |  | 1 to 10 | > 20 | > 10 |
| CNC(=O)[C@@H](NC(=O)[C@@H]1CN(C(=O)c2cnn(Cc3ccccc3)c2)CC12CN(c1nnn[nH]1)C2)[C@@H](C)OCC1CCCCC1 [Compound I-1, (S)-6-(1-Benzyl-1H-pyrazole-4-carbonyl)-N-((2S,3R)-3-(cyclohexylmethoxy)-1-(methylamino)-1-oxobutan-2-yl)-2-(1H-tetrazol-5-yl)-2,6-diazaspiro[3.4]octane-8-carboxamide] |  | > 10 | > 20 | > 10 |
| C[C@@H](OCC12CCC(CC1)OC2)[C@H](NC(=O)[C@@H]1CN(C(=O)c2cncs2)CC12CN(c1ncco1)C2)C(C)(C)O [Compound I-3, (S)-N-((3S,4R)-4-(2-oxabicyclo[2.2.2]octan-4-ylmethoxy)-2-hydroxy-2-methylpentan-3-yl)-2-(oxazol-2-yl)-6-(thiazole-5-carbonyl)-2,6-diazaspiro[3.4]octane-8-carboxamide] |  | > 10 | > 20 | > 10 |

Second part, led by results:

| IC50 [2] [µM] | IC50 [3] [µM] | Compound | IC50 [1] [µM] | IC50 [4] [µM] |
| --- | --- | --- | --- | --- |
| 0.5 to 5 |  | C[C@@H](OCC12CCC(CC1)OC2)[C@H](NC(=O)[C@@H]1CN(c2cc(F)cc3ncsc23)CC12CN(C(=O)C1(C(F)(F)F)CC1)C2)C(=O)N1CCC(c2nccs2)CC1 [Compound I-48, (S)-N-((2S,3R)-3-((2-oxabicyclo[2.2.2]octan-4-yl)methoxy)-1-oxo-1-(4-(thiazol-2-yl)piperidin-1-yl)butan-2-yl)-6-(5-fluorobenzo[d]thiazol-7-yl)-2-(1-(trifluoromethyl)cyclopropane-1-carbonyl)-2,6-diazaspiro[3.4]octane-8-carboxamide] | 0.5 to 5 |  |
| > 10 |  | C[C@@H](OCC12CCC(CC1)OC2)[C@H](NC(=O)[C@@H]1CN(c2cc(F)cc3ncsc23)CC12CN(C(=O)C1(C(F)(F)F)CC1)C2)C(=O)N1CCC2(CC1)COC2 [Compound I-46, (S)-N-((2S,3R)-3-(2-oxabicyclo[2.2.2]octan-4-ylmethoxy)-1-oxo-1-(2-oxa-7-azaspiro[3.5]nonan-7-yl)butan-2-yl)-6-(5-fluorobenzo[d]thiazol-7-yl)-2-(1-(trifluoromethyl)cyclopropanecarbonyl)-2,6-diazaspiro[3.4]octane-8-carboxamide] | > 20 |  |
| > 10 |  | C[C@@H](OCC12CCC(CC1)OC2)[C@H](NC(=O)[C@@H]1CN(c2cccc3nc(O)cnc23)CC12CN(C(=O)C1(C(F)(F)F)CC1)C2)C(=O)N1CCC(c2nccs2)CC1 [Compound I-45, (S)-N-((2S,3R)-3-((2-oxabicyclo[2.2.2]octan-4-yl)methoxy)-1-oxo-1-(4-(thiazol-2-yl)piperidin-1-yl)butan-2-yl)-6-(2-hydroxyquinoxalin-5-yl)-2-(1-(trifluoromethyl)cyclopropane-1-carbonyl)-2,6-diazaspiro[3.4]octane-8-carboxamide] | > 20 |  |
|  | > 10 | C[C@@H](OCC1CCCCC1)[C@H](NC(=O)[C@@H]1CN(c2cccc3scnc23)CC12CN(C(=O)[C@H]1CC1(C)C)C2)C(=O)N1CCCCC1 [Compound I-8, 6-(benzo[d]thiazol-4-yl)-N-((2S,3R)-3-(cyclohexylmethoxy)-1-oxo-1-(piperidin-1-yl)butan-2-yl)-2-((S)-2,2-dimethylcyclopropanecarbonyl)-2,6-diazaspiro[3.4]octane-8-carboxamide] | > 20 | 5 to 10 |
|  | 0.1 to 1 | C[C@@H](OCC1CCCCC1)[C@H](NC(=O)[C@@H]1CN(c2cccc3ncsc23)CC12CN(C(=O)[C@H]1CC1(C)C)C2)C(=O)N1CCCCC1 [Compound I-7, (S)-6-(benzo[d]thiazol-7-yl)-N-((2S,3R)-3-(cyclohexylmethoxy)-1-oxo-1-(piperidin-1-yl)butan-2-yl)-2-((S)-2,2-dimethylcyclopropanecarbonyl)-2,6-diazaspiro[3.4]octane-8-carboxamide] | > 20 | 5 to 10 |
|  | > 10 | C[C@@H](OCC1CCCCC1)[C@H](NC(=O)[C@@H]1CN(c2nccc3scnc23)CC12CN(C(=O)[C@H]1CC1(C)C)C2)C(=O)N1CCCCC1 [Compound I-10, (S)-N-((2S,3R)-3-(cyclohexylmethoxy)-1-oxo-1-(piperidin-1-yl)butan-2-yl)-2-((S)-2,2-dimethylcyclopropanecarbonyl)-6-(thiazolo[4,5-c]pyridin-4-yl)-2,6-diazaspiro[3.4]octane-8-carboxamide] | 5 to 20 | > 10 |

Source: patent US20260014146A1, “CDK2 INHIBITORS AND METHODS OF USING THE SAME” (Cedilla Therapeutics, Inc., priority 2022, published 2026)
